Structures are written as SMILES.

For ten compounds, EC50, IC50 and CC50 results are on record in patent US11236087B2, “Highly active pyrazolo-piperidine substituted indole-2-carboxamides active against the hepatitis B virus (HBV)” (AiCuris GmbH & Co. KG, priority 2017, dated 2022).

One data set concerns HBV. The experiment in a line: Determination of HBV DNA from the supernatants of HepAD38 cells (anti-HBV activity). The conditions noted are these: Hepatitis B virus, 144 h; HBV DNA in HepAD38 supernatant, day 6, qPCR; read-out: Cell Activity (EC50). The class given is cell-based, hepatitis B virus. The procedure, abridged: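 Supernatant viral DNA was measured by LightCycler qPCR, calibrated with pCH-9/3091 plasmid, 6 days after tetracycline-free HepAD38 cultures received half-log serial compound dilutions; untreated and tetracycline-treated cells served as controls; EC50 was fitted by non-linear regression.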

Another data set has as its target T1, HBV core protein (UniProt P03146).
T1 construct: fused on or other part: BODIPY-FL maleimide label on the C-terminal Cys150
The experiment in a line: Biochemical capsid assembly assay (fluorescence quenching). On the set-up: species or system hepatitis B virus. The conditions noted are these: read-out: Assembly Activity (IC50); BODIPY-FL labelled core protein, 300 μM NaCl, read 6 min after start. On the procedure:
Biochemical Capsid Assembly Assay
The screening for assembly effector activity was done based on a fluorescence quenching assay published by Zlotnick et al. (2007). The C-terminal truncated core protein containing 149 amino acids of the N-terminal assembly domain fused to a unique cysteine residue at position 150 and was expressed in E. coli using the pET expression system (Merck Chemicals, Darmstadt). Purification of core dimer protein was performed using a sequence of size exclusion chromatography steps. In brief, the cell pellet from 1 L BL21 (DE3) Rosetta2 culture expressing the coding sequence of core protein cloned NdeI/XhoI into expression plasmid pET21b was treated for 1 h on ice with a native lysis buffer (Qproteome Bacterial Protein Prep Kit; Qiagen, Hilden). After a centrifugation step the supernatant was precipitated during 2 h stirring on ice with 0.23 g/ml of solid ammonium sulfate. Following further centrifugation the resulting pellet was resolved in buffer A (100 mM Tris, pH 7.5; 100 mM NaCl; 2 mM DTT) and was subsequently loaded onto a buffer A equilibrated CaptoCore 700 column (GE HealthCare, Frankfurt). The column flow through containing the assembled HBV capsid was dialyzed against buffer N (50 mM NaHCO3 pH 9.6; 5 mM DTT) before urea was added to a final concentration of 3M to dissociate the capsid into core dimers for 1.5 h on ice. The protein solution was then loaded onto a 1 L Sephacryl S300 column. After elution with buffer N core dimer containing fractions were identified by SDS-PAGE and subsequently pooled and dialyzed against 50 mM HEPES pH 7.5; […]. To improve the assembly capacity of the purified core dimers a second round of assembly and disassembly starting with the addition of 5 M NaCl and including the size exclusion chromatography steps described above was performed. From the last chromatography step core dimer containing fractions were pooled and stored in aliquots at concentrations between 1.5 to 2.0 mg/ml at −80° C.
Immediately before labelling the core protein was reduced by adding freshly prepared DTT in a final concentration of 20 mM. After 40 min incubation on ice storage buffer and DTT was removed using a Sephadex G-25 column (GE HealthCare, Frankfurt) and 50 mM HEPES, pH 7.5. For labelling 1.6 mg/ml core protein was incubated at 4° C. and darkness overnight with BODIPY-FL maleimide (Invitrogen, Karlsruhe) in a final concentration of 1 mM. After labelling the free dye was removed by an additional desalting step using a Sephadex G-25 column. Labelled core dimers were stored in aliquots at 4° C. In the dimeric state the fluorescence signal of the labelled core protein is high and is quenched during the assembly of the core dimers to high molecular capsid structures. The screening assay was performed in black 384 well microtiter plates in a total assay volume of 10 μl using 50 mM HEPES pH 7.5 and 1.0 to 2.0 μM labelled core protein. Each screening compound was added in 8 different concentrations using a 0.5 log-unit serial dilution starting at a final concentration of 100 μM, 31.6 μM or 10 μM, In any case the DMSO concentration over the entire microtiter plate was 0.5%. The assembly reaction was started by the injection of NaCl to a final concentration of […] which induces the assembly process to approximately 25% of the maximal quenched signal. 6 min after starting the reaction the fluorescence signal was measured using a Clariostar plate reader (BMG Labtech, Ortenberg) with an excitation of 477 nm and an emission of 525 nm. As 100% and 0% assembly control HEPES buffer containing 2.5 M and 0 M NaCl was used. Experiments were performed thrice in triplicates. EC50 values were calculated by non-linear regression analysis using the Graph Pad Prism 6 software (GraphPad Software, La Jolla, USA).

Data set [1] in a line: Cell viability assay (AlamarBlue) in HepAD38 cells. The conditions noted are these: human.

T1 sequence (P03146 whole entry, looked up, the tested form may be a part): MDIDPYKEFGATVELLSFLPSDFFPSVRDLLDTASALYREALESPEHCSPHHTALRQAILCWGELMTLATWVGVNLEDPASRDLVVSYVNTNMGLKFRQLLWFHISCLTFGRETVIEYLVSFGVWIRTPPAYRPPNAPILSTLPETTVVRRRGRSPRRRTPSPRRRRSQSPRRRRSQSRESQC

On to `CC(CO)N(C)C(=O)c1n[nH]c2c1CN(C(=O)c1cc3ccccc3[nH]1)CC2` (stereo not drawn) [Example 42, N-(1-hydroxypropan-2-yl)-5-(1H-indole-2-carbonyl)-N-methyl-1H,4H,5H,6H,7H-pyrazolo[4,3-c]pyridine-3-carboxamide], for which, in the data set on HBV, the EC50 (in general, the concentration at which the effect is half-maximal) fell in the range of 1 to 25 µM. Also, at HBV core protein, the half-inhibitory concentration (IC50) (in general, the concentration that inhibits the measured activity by half) was 5 to 10 µM. In addition, in data set [1], the CC50 – broadly, the concentration at which the toxic effect on the cells reaches its halfway point – at 6 days is over 100 µM.
The like results for `CN(CC(C)(C)O)C(=O)c1n[nH]c2c1CN(C(=O)c1cc3ccccc3[nH]1)CC2` [Example 43, N-(2-hydroxy-2-methylpropyl)-5-(1H-indole-2-carbonyl)-N-methyl-1H,4H,5H,6H,7H-pyrazolo[4,3-c]pyridine-3-carboxamide] were, in that order, under 1 µM, 5 to 10 µM and over 32 µM.
The like results for `O=C(c1cc2ccccc2[nH]1)N1CCc2[nH]nc(C(=O)N3CC(CCO)C3)c2C1` [Example 44, 2-{1-[5-(1H-indole-2-carbonyl)-1H,4H,5H,6H,7H-pyrazolo[4,3-c]pyridine-3-carbonyl]azetidin-3-yl}ethan-1-ol] were, in that order, 1 to 25 µM, under 100 µM and over 100 µM.
With `O=C(c1cc2ccccc2[nH]1)N1CCc2[nH]nc(C(=O)N3CC(CO)C3)c2C1` [Example 45, {1-[5-(1H-indole-2-carbonyl)-1H,4H,5H,6H,7H-pyrazolo[4,3-c]pyridine-3-carbonyl]azetidin-3-yl}methanol], the EC50 in the data set with HBV was in the range of 1 to 25 µM. Also, at HBV core protein, the IC50 was under 100 µM. This compound displayed a CC50 at 6 days in data set [1] of over 100 µM.
The like results for `O=C(c1cc2c(Cl)cc(F)cc2[nH]1)N1CCc2[nH]nc(-c3cscn3)c2C1` [Example 46, 4-chloro-6-fluoro-2-[3-(1,3-thiazol-4-yl)-1H,4H,5H,6H,7H-pyrazolo[4,3-c]pyridine-5-carbonyl]-1H-indole] were, in that order, under 1 µM, under 5 µM and over 100 µM.
The like results for `O=C(c1cc2ccccc2[nH]1)N1CCc2[nH]nc(-c3cscn3)c2C1` [Example 47, 2-[3-(1,3-thiazol-4-yl)-1H,4H,5H,6H,7H-pyrazolo[4,3-c]pyridine-5-carbonyl]-1H-indole] were, in that order, under 1 µM, under 5 µM and over 100 µM.
On to `CC(C)[C@H](N)C(=O)OCCN(C)C(=O)c1n[nH]c2c1CN(C(=O)c1cc3ccccc3[nH]1)CC2` [Example 48, 2-{1-[5-(1H-indole-2-carbonyl)-1H,4H,5H,6H,7H-pyrazolo[4,3-c]pyridin-3-yl]-N-methylformamido}ethyl (2S)-2-amino-3-methylbutanoate], for which the EC50 in the data set with HBV was under 1 µM. In addition, the IC50 at HBV core protein was under 5 µM. Besides, the 50% cytotoxic concentration (CC50) at 6 days in data set [1] was over 32 µM.
Turning to `CC(O)c1cc(F)cc2[nH]c(C(=O)N3CCc4[nH]nc(C(=O)N(C)CCO)c4C3)cc12` (stereo not drawn) [Example 49, 5-[6-fluoro-4-(1-hydroxyethyl)-1H-indole-2-carbonyl]-N-(2-hydroxyethyl)-N-methyl-1H,4H,5H,6H,7H-pyrazolo[4,3-c]pyridine-3-carboxamide], the EC50 with HBV is under 100 µM. The IC50 at HBV core protein was under 100 µM. This compound also registered a CC50 at 6 days in data set [1] of over 100 µM.
Consider `CC(O)c1cccc2[nH]c(C(=O)N3CCc4[nH]nc(C(=O)N(C)CCO)c4C3)cc12` (stereo not drawn) [Example 50, N-(2-hydroxyethyl)-5-[4-(1-hydroxyethyl)-1H-indole-2-carbonyl]-N-methyl-1H,4H,5H,6H,7H-pyrazolo[4,3-c]pyridine-3-carboxamide], for which, in the data set on HBV, the EC50 was under 100 µM. Also, the IC50 at HBV core protein was under 100 µM. In data set [1], this compound displayed a CC50 at 6 days of over 32 µM.
For the compound `CN(CCO)C(=O)c1n[nH]c2c1CN(C(=O)c1cc3c(Cl)c(F)ccc3[nH]1)CC2` [Example 51, 5-(4-chloro-5-fluoro-1H-indole-2-carbonyl)-N-(2-hydroxyethyl)-N-methyl-1H,4H,5H,6H,7H-pyrazolo[4,3-c]pyridine-3-carboxamide], the EC50 in the data set with HBV is under 1 µM. Further, the IC50 at HBV core protein is under 5 µM. The compound also showed a CC50 at 6 days in data set [1] of over 100 µM.
